In brackets after ≈: the same amount, converted by molar mass. Several values for one entry are separate records, joined by “and”; a condition that tells them apart may be missing. Identical values can stand only once. Like-named read-outs stand apart in the source and are kept apart here.

Data set [1] relates to Neisseria gonorrhoeae. The experiment in a line: microbe, parasite or virus in culture. The format is cell-based.
A short description of data set [2]: Toxicity study in mice, body weight over 7 days. It counts as in vivo, Balb/c mice. Conditions: for toxicity in mice (body weight over 7 days): 6-week-old Balb/c mice, vehicle 40% PEG300 in 0.9% NaCl. The source says:
The vehicle is 40% PEG300 solution in 0.9% NaCl. […] Thus, the compounds are useful for in vivo antimicrobial administration.

[3] abbreviates: ATCC49226, read-out: Neisseria gonorrhoeae ATCC 49226 MIC, strain ATCC 49226.
Setting [4] is: read-out: Neisseria gonorrhoeae WHO 901 MIC, strain WHO 901.
The mark [5] stands for this setting: read-out: Neisseria gonorrhoeae WHO 914 MIC, strain WHO 914.
Where [6] appears, read: IP 0.1 mg/kg, Day 0, individual animals, 0.1 mg/kg.
[7] abbreviates: IP 0.1 mg/kg, Day 1, individual animals, 0.1 mg/kg.
Where [8] appears, read: IP 0.1 mg/kg, Day 2, individual animals, 0.1 mg/kg.
Setting [9] is: IP 0.1 mg/kg, Day 3, individual animals, 0.1 mg/kg.
[10] abbreviates: IP 0.1 mg/kg, Day 4, individual animals, 0.1 mg/kg.
[11] abbreviates: IP 0.1 mg/kg, Day 5, individual animals, 0.1 mg/kg.
Where [12] appears, read: IP 0.1 mg/kg, Day 6, individual animals, 0.1 mg/kg.
The mark [13] stands for this setting: IP 0.1 mg/kg, Day 7, individual animals, 0.1 mg/kg.
[14] abbreviates: IP 1 mg/kg, Day 0, individual animals, 1 mg/kg.
The mark [15] stands for this setting: IP 1 mg/kg, Day 1, individual animals, 1 mg/kg.
[16] abbreviates: IP 1 mg/kg, Day 3, individual animals, 1 mg/kg.
Where [17] appears, read: IP 1 mg/kg, Day 4, individual animals, 1 mg/kg.
Where [18] appears, read: IP 1 mg/kg, Day 5, individual animals, 1 mg/kg.
Setting [19] is: IP 1 mg/kg, Day 6, individual animals, 1 mg/kg.
The mark [20] stands for this setting: IP 1 mg/kg, Day 7, individual animals, 1 mg/kg.
Where [21] appears, read: IP 10 mg/kg, Day 0, individual animals, 10 mg/kg.
[22] abbreviates: IP 10 mg/kg, Day 1, individual animals, 10 mg/kg.
[23] abbreviates: IP 10 mg/kg, Day 2, individual animals, 10 mg/kg.
[24] abbreviates: IP 10 mg/kg, Day 3, individual animals, 10 mg/kg.
[25] abbreviates: IP 10 mg/kg, Day 6, individual animals, 10 mg/kg.
Setting [26] is: IP 10 mg/kg, Day 7, individual animals, 10 mg/kg.
Setting [27] is: IP 1 mg/kg, Day 2, individual animals, 1 mg/kg.
Setting [28] is: IP 10 mg/kg, Day 4, individual animals, 10 mg/kg.
[29] abbreviates: IP 10 mg/kg, Day 5, individual animals, 10 mg/kg.

For `Cc1ccccc1Oc1c[nH]c2ccc(F)cc12`, the results for the MIC in data set [1] (setting [3]), in data set [1] (setting [4]) and in data set [1] (setting [5]) were 8 µg/mL (≈ 33.2 µM), 4 µg/mL (≈ 16.6 µM) and 8 µg/mL (≈ 33.2 µM), respectively.
For the compound `Cc1[nH]c2ccc(Br)cc2c1Sc1ccccc1Br` [Compound 174AZ, 5-bromo-3-((2-bromophenyl)thio)-2-methyl-1H-indole], the “toxicity in mice (body weight over 7 days)” value in data set [2] is “did not have significant toxicity”. The Animal body weight in data set [2] (setting [6]) was 0.023 kg (2×) and 0.025 kg; in data set [2] (setting [7]), 0.022 kg and 0.024 kg and 0.023 kg; in data set [2] (setting [8]) it was 0.022 kg and 0.025 kg and 0.023 kg; in data set [2] (setting [9]) it was 0.022 kg and 0.025 kg and 0.023 kg; in data set [2] (setting [10]), 0.023 kg (2×) and 0.025 kg; in data set [2] (setting [11]) it was 0.022 kg and 0.025 kg and 0.023 kg. For the same compound, the Animal body weight was 0.022 kg and 0.025 kg and 0.023 kg in data set [2] (setting [12]); 0.022 kg (2×) and 0.025 kg in data set [2] (setting [13]); 0.024 kg (2×) and 0.025 kg in data set [2] (setting [14]); 0.023 kg and 0.024 kg (2×) in data set [2] (setting [15]); 0.024 kg in data set [2] (IP 1 mg/kg, Day 2, individual animals); 0.025 kg and 0.024 kg (2×) in data set [2] (setting [16]). In addition, the Animal body weight was 0.025 kg (2×) and 0.024 kg in data set [2] (setting [17]); 0.025 kg and 0.023 kg and 0.024 kg in data set [2] (setting [18]); 0.025 kg and 0.024 kg (2×) in data set [2] (setting [19]); 0.025 kg and 0.023 kg and 0.024 kg in data set [2] (setting [20]); 0.023 kg (2×) and 0.024 kg in data set [2] (setting [21]); 0.022 kg (2×) and 0.023 kg in data set [2] (setting [22]). The Animal body weight in data set [2] (setting [23]) was 0.022 kg and 0.023 kg (2×); in data set [2] (setting [24]), 0.022 kg (2×) and 0.023 kg; in data set [2] (IP 10 mg/kg, Day 4, individual animals), 0.023 kg; in data set [2] (IP 10 mg/kg, Day 5, individual animals) it was 0.023 kg; in data set [2] (setting [25]), 0.022 kg (2×) and 0.023 kg; in data set [2] (setting [26]) it was 0.023 kg (2×) and 0.022 kg.
As to `Brc1ccc(Oc2c[nH]c3ccccc23)cc1` [3-(4-bromophenoxy)-1H-indole], the values for the MIC in data set [1] (setting [3]), in data set [1] (setting [4]) and in data set [1] (setting [5]) were greater than 8 µg/mL, 4 µg/mL (≈ 13.9 µM) and greater than 8 µg/mL, respectively.
For `Fc1ccc2[nH]cc(Cc3ccccc3F)c2c1`, the MIC in data set [1] (setting [3]) is 8 µg/mL (≈ 32.9 µM); in data set [1] (setting [4]) it was 8 µg/mL (≈ 32.9 µM); in data set [1] (setting [5]), greater than 8 µg/mL.
For `Cc1cccc(Cc2c[nH]c3ccc(F)cc23)c1`, the MIC in data set [1] (setting [3]) was 8 µg/mL (≈ 33.4 µM); in data set [1] (setting [4]), 8 µg/mL (≈ 33.4 µM); in data set [1] (setting [5]), greater than 8 µg/mL.
On to `Oc1ccccc1Sc1c[nH]c2ccc(Br)cc12` [Compound 174AI, 2-((5-bromo-1H-indol-3-yl)thio)phenol], for which the “toxicity in mice (body weight over 7 days)” value in data set [2] is “did not have significant toxicity”. Also, the Animal body weight in data set [2] (setting [6]) was 0.023 kg (2×) and 0.022 kg; in data set [2] (setting [7]), 0.022 kg (2×) and 0.021 kg; in data set [2] (setting [8]), 0.023 kg and 0.022 kg and 0.021 kg; in data set [2] (setting [9]), 0.024 kg and 0.022 kg (2×); in data set [2] (setting [10]) it was 0.024 kg and 0.022 kg (2×); in data set [2] (setting [11]), 0.024 kg and 0.022 kg (2×). Besides, the Animal body weight in data set [2] (setting [12]) is 0.024 kg and 0.022 kg (2×); in data set [2] (setting [13]), 0.023 kg (2×) and 0.022 kg; in data set [2] (setting [14]), 0.022 kg and 0.024 kg and 0.026 kg; in data set [2] (setting [15]), 0.023 kg and 0.024 kg and 0.026 kg; in data set [2] (setting [27]) it was 0.023 kg and 0.025 kg and 0.026 kg; in data set [2] (setting [16]) it was 0.023 kg and 0.025 kg and 0.027 kg. Further, the Animal body weight was 0.022 kg and 0.025 kg and 0.026 kg in data set [2] (setting [17]); 0.022 kg and 0.025 kg and 0.026 kg in data set [2] (setting [18]); 0.022 kg and 0.024 kg and 0.026 kg in data set [2] (setting [19]); 0.022 kg and 0.024 kg and 0.026 kg in data set [2] (setting [20]); 0.022 kg and 0.026 kg and 0.024 kg in data set [2] (setting [21]); 0.021 kg and 0.024 kg and 0.022 kg in data set [2] (setting [22]). Also, the Animal body weight was 0.022 kg and 0.024 kg and 0.023 kg in data set [2] (setting [23]); 0.022 kg and 0.025 kg and 0.023 kg in data set [2] (setting [24]); 0.022 kg and 0.026 kg and 0.024 kg in data set [2] (setting [28]); 0.023 kg and 0.026 kg and 0.024 kg in data set [2] (setting [29]); 0.022 kg and 0.026 kg and 0.024 kg in data set [2] (setting [25]); 0.022 kg and 0.026 kg and 0.023 kg in data set [2] (setting [26]).
For `Fc1ccc2[nH]cc(Cc3ccc(Br)cc3)c2c1` [3-(4 bromobenzyl)-5-fluoro-1H-indole], in data set [1] (setting [3]), the MIC was 4 µg/mL (≈ 13.2 µM).
For the compound `Brc1ccc(Oc2c[nH]c3ccc(Br)cc23)cc1` [5-bromo-3-(4-bromophenoxy)-1H-indole], the MIC worked out at 4 µg/mL (≈ 10.9 µM) in data set [1] (setting [3]), 2 µg/mL (≈ 5.45 µM) in data set [1] (setting [4]) and 4 µg/mL (≈ 10.9 µM) in data set [1] (setting [5]).
`Fc1ccccc1Sc1c[nH]c2ccc(Br)cc12` [Compound 174AU, 5-bromo-3-((2-fluorophenyl)thio)-1H-indole]: the “toxicity in mice (body weight over 7 days)” value in data set [2] was “did not have significant toxicity”. For the same compound, the Animal body weight was 0.026 kg and 0.023 kg and 0.024 kg in data set [2] (setting [6]); 0.024 kg and 0.022 kg and 0.023 kg in data set [2] (setting [7]); 0.025 kg and 0.022 kg and 0.023 kg in data set [2] (setting [8]); 0.025 kg and 0.022 kg and 0.023 kg in data set [2] (setting [9]); 0.025 kg and 0.022 kg and 0.023 kg in data set [2] (setting [10]); 0.025 kg and 0.023 kg and 0.024 kg in data set [2] (setting [11]). Besides, the Animal body weight is 0.025 kg and 0.022 kg and 0.023 kg in data set [2] (setting [12]); 0.024 kg and 0.022 kg and 0.023 kg in data set [2] (setting [13]); 0.026 kg and 0.022 kg and 0.025 kg in data set [2] (setting [14]); 0.025 kg (2×) and 0.022 kg in data set [2] (setting [15]); 0.026 kg and 0.022 kg and 0.025 kg in data set [2] (setting [27]); 0.026 kg and 0.022 kg and 0.025 kg in data set [2] (setting [16]). In addition, the Animal body weight in data set [2] (setting [17]) is 0.026 kg and 0.023 kg and 0.025 kg; in data set [2] (setting [18]) it was 0.026 kg and 0.023 kg and 0.025 kg; in data set [2] (setting [19]), 0.025 kg (2×) and 0.023 kg; in data set [2] (setting [20]), 0.026 kg and 0.024 kg and 0.025 kg; in data set [2] (setting [21]) it was 0.024 kg (2×) and 0.025 kg; in data set [2] (setting [22]) it was 0.023 kg (2×) and 0.024 kg. The Animal body weight in data set [2] (setting [23]) was 0.023 kg (2×) and 0.025 kg; in data set [2] (setting [24]), 0.024 kg and 0.023 kg and 0.025 kg; in data set [2] (setting [28]), 0.023 kg (2×) and 0.025 kg; in data set [2] (setting [29]), 0.023 kg (2×) and 0.026 kg; in data set [2] (setting [25]), 0.022 kg and 0.023 kg and 0.026 kg; in data set [2] (setting [26]), 0.022 kg and 0.023 kg and 0.026 kg.
As for `Brc1ccc2[nH]cc(Oc3ccccc3)c2c1` [5 bromo-3-phenoxy-1H-indole], the MIC in data set [1] (setting [3]) worked out at 8 µg/mL (≈ 27.8 µM); in data set [1] (setting [4]), 4 µg/mL (≈ 13.9 µM); in data set [1] (setting [5]), 8 µg/mL (≈ 27.8 µM).
Take `CC(c1ccccc1)c1c[nH]c2ccc(F)cc12` (stereo not shown): the MIC in data set [1] (setting [3]) was determined as 8 µg/mL (≈ 33.4 µM); in data set [1] (setting [4]) it was 4 µg/mL (≈ 16.7 µM); in data set [1] (setting [5]) it was 8 µg/mL (≈ 33.4 µM).
For `c1ccc(Oc2c[nH]c3ccccc23)cc1` [3-phenoxy-1H-indole], the MIC in data set [1] (setting [3]), in data set [1] (setting [4]) and in data set [1] (setting [5]) was greater than 8 µg/mL throughout.

Source of the values: patent US20250382269A1 (CFD Research Corporation, priority 2019, published 2025).
